Five molecules from patent US20260207535A1, “CRIBLAGE INHIBITEURS USP8” (COMMISSARIAT A L'ENERGIE ATOMIQUE ET AUX ENERGIES …, priority 2022, published 2026) can be followed below.

The subject of one data set is AtT-20 pituitary cells. The data set is described as follows: Inhibition of ACTH secretion in pituitary cells (ACTH EIA on supernatant). The class given is cell-based, mouse. Particulars: 25 μM, 24-hour treatment; for activity at 25 µM: Mus musculus, AtT20, AtT-20 supernatant, read-out: ACTH secretion % of control (DMSO) at 25 μM. On the procedure: ACTH release (percent comparison to DMSO control). Briefly, 12,500 AtT-20 cells per well were seeded in a 96-well plate. After 24 hours exposure, cells were treated with each compound at the indicated final concentration, or with DMSO alone (control condition compound solvent) or with corticotropin releasing factor (indicated CRF) at 100 nM. After a 24-hour treatment, cell supernatants were collected and stored at −80° C., prior to quantification of ACTH concentration using ACTH chemiluminescent EIA kit (Phoenix Pharmaceuticals, Inc.). Determination of ACTH concentrations was based on the best-fitting ACTH standard curve and P values were calculated using one-way ANOVA, using Prism 9 software (GraphPad Software, Inc.) ns (P=0.12). **P<0.002. ***P<0.001. All compounds were tested in technical triplicates. One representative experiment out of three is presented.
FIG. 4: illustrates a decrease of ACTH secretion by AtT-20 cells after 24-hour treatment of halogenated salicylanilides. 12,500 AtT-20 cells per well were seeded in a 96-well plate. […] After a 24-hour treatment, cell supernatants were collected and stored at −80° C., prior to quantification of ACTH concentration using ACTH chemiluminescent EIA kit (Phoenix Pharmaceuticals, Inc.). Determination of ACTH concentrations was based on the best-fitting ACTH standard curve and P values were calculated by ordinary one-way ANOVA using Prism 6 software (GraphPad Software, Inc), ns (not significant), **** P<0.0001. Compounds were tested in technical triplicates.
12,500 AtT-20 cells per well were seeded in a 96-well plate. After 24 hours, cells were treated with compounds (corresponding chemical formula are indicated in Table 1) at 25 μM final concentration, or with DMSO alone (compound solvent). After a 24-hour treatment, cell supernatants were collected and stored at −80° C., prior to quantification of ACTH concentration using ACTH chemiluminescent EIA kit (Phoenix Pharmaceuticals, Inc.). Determination of ACTH concentrations was based on the best-fitting ACTH standard curve and P values were calculated by ordinary one-way ANOVA using Prism 6 software (GraphPad Software, Inc), ns (not significant), *P<0.05, ***P<0,0001. Compounds were tested in technical triplicates.
Mouse AtT-20 pituitary cell line were used as a powerful and well-characterized model to monitor ACTH secretion using an enzyme immunoassay (EIA) kit.
Mouse AtT-20 cells were obtained from the American Type Culture Collection and maintained on DMEM containing 10% fetal bovine serum, 100 μg/mL streptomycin and 100 U/mL penicillin at 37° C. with 5% CO2 after recovery from long-term storage on liquid nitrogen-vapor phase.
The ACTH secretion levels of AtT-20 cell culture was monitored on the supernatant of AtT-20 cells treated or not by increasing doses of compounds belonging to the family of halogenated salicylanilides chemicals.
1.25×10^4 AtT20 cells were seeded on polylysine-coated 96-well culture vessels on 150 μL of complete medium. After 24 hours, cells were treated with stock compounds to a final DMSO concentration of 0.5%. After 24 hours of treatment, cell culture supernatant was collected, cleared for 10 min at 1000×g at 4° C., diluted or not in assay buffer (Phoenix Peptide ACTH EIA EK-001-21) and frozen at −80° C. for subsequent processing according to the instructions of the kit's manufacturer.

For data set [1], the target named is T1, Full length USP8 (USP8FL) (Homo sapiens, UniProt P40818).
T1 construct: purchased BostonBiochem E-520
T1 sequence (P40818 1-1118): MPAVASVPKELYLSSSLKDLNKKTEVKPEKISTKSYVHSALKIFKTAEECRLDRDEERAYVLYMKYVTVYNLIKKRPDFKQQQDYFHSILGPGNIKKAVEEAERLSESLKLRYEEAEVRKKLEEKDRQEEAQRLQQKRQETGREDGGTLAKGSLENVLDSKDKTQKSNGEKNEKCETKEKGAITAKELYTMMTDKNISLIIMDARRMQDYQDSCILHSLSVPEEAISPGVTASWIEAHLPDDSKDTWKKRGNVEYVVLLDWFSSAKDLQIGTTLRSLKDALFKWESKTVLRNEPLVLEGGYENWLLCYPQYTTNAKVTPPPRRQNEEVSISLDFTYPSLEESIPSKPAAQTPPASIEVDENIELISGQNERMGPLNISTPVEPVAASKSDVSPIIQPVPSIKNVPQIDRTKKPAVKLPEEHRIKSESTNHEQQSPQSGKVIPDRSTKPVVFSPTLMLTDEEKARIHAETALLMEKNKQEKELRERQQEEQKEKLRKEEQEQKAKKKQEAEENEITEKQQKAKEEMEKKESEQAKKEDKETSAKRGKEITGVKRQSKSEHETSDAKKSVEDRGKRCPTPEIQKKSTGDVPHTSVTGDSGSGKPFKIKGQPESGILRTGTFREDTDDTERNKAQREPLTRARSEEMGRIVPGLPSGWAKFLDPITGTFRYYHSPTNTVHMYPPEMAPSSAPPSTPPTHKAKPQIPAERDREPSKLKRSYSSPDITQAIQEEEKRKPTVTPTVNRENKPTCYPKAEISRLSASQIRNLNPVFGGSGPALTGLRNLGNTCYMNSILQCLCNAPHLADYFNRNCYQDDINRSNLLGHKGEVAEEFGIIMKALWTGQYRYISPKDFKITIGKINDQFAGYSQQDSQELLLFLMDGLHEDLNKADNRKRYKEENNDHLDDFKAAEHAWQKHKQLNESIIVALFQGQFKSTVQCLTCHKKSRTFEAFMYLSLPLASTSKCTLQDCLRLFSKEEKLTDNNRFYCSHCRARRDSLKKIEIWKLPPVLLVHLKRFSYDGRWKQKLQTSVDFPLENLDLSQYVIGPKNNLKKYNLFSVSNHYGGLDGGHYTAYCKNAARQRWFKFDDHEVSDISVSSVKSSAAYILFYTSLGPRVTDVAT
The data set is described as follows: USP8FL (full length USP8) enzymatic inhibition, Ub-Rhodamine 110 hydrolysis in L-cysteine buffer. Particulars: USP8 FL 75 nM, Ub-Rho 0.1 μM, L-cysteine buffer; read-out: USP8FL inhbition IC50 [μM] (CI: Confidence Interval). The class given is biochemical. On the procedure: USP8 FL (USP8 Full Length) was incubated at a concentration of 75 nM in the presence of Ub-Rho (UBIQUIGENT ref. 60-0117-050) at a final concentration of 0.1 μM, in conditions ensuring linearity of enzyme activity throughout the assay in a specific buffer. Compounds were added to the reaction mix at different doses just before the substrate. The enzymatic reaction kinetics were monitored by measuring fluorescence elicited by the hydrolysis of Ub-Rho over 30 min.
In this setup, an in-house purified catalytic domain of USP8 (USP8CD) was used at a concentration of 80 nM in the presence of the artificial substrate Ubiquitin-Rhodamine 110 (Ub-Rho) (ref: 60-0117-050 Ubiquigent) at a final concentration of 0.1 μM, in conditions ensuring linearity of enzyme activity throughout the assay incubation time. Enzymatic assay was performed in a Tris HCl buffer (40 mM Tris HCl pH 7.4, Ovalbumine 0.5 mg/ml, Cysteine HCl 5.5 mM). Compounds to be tested were added to the reaction mix and incubated with enzyme for 20 min, before the substrate. The enzymatic reaction kinetics were monitored by measuring fluorescence elicited by the hydrolysis of the peptidyl Ub-Rho over 30 minutes. The negative control was the solvent DMSO at 1%.
Full length USP8 (USPBFL) (BostonBiochem ref. E-520) were used at a concentration of 75 nM in the presence of a ubiquitin substrate, i.e., the Ub-Rhodamine 110 (Ub-Rho) (Ubiquigent ref. 60-0117-050) at a final concentration of 0.1 μM. Enzymatic assays were performed as described for USP8-CD except that USP-FL was used at a concentration of 75 nM. The compounds were used at a final concentration of 0.1, 1, 5, 10, 50 and 100 μM in DMSO 0.5%. The USP8 catalytic activity was monitored both before adding the substrate (TO) and after twenty minutes of incubation at room temperature (Final Time TF). The enzymatic reaction kinetics were monitored by measuring fluorescence elicited by the hydrolysis of the Ub-Rho bound over 30 minutes.

The test system of another data set is AtT-20 cells. The data set is described as follows: Cytotoxicity towards AtT-20 cells (PrestoBlue viability assay). Particulars: 25 μM, 24-hour exposure.

Source text for AtT-20 cells: The AtT-20 cells viability was monitored in the conditions used to follow ACTH secretion. The viability of treated cells was concomitantly evaluated using a Cell Viability Reagent (monitoring of the cells' reducing capacity) (PrestoBlue® assay, Molecular Probes) with the aim to determine non-toxic doses of cell treatment.
After the collection of the supernatant sample for the ACTH assay in the previous step, cells were supplemented with the PrestoBlue™ cell viability reagent (Invitrogen™ A13261) at 10% final volume, and re-incubated at 37° C. for 30 minutes. Fluorescence was then read with a FLUOstar OPTIMA microplate reader.

Take `O=C(Nc1cc(Cl)cc(Cl)c1O)c1c(O)c(Cl)cc(Cl)c1Cl` [Oxyclozanide, reference compound]: in the data set with AtT-20 pituitary cells, the “inhibition of ACTH at 25 μM, in words (FIG. 4, FIG. 5)” value (from here on “inhibition of ACTH at 25 μM, in words”) is reported as “significant inhibition” and the activity at 25 µM was 41%. In data set [1], the IC50 is 7.68 µM. Moreover, the “AtT-20 cell viability (PrestoBlue assay) % of control (DMSO) at 25 μM Mean (SD)” value in the data set on AtT-20 cells is reported as 98.08 (14.38) %.
`O=C(Nc1cc(Cl)cc(Cl)c1)c1cc(I)cc(I)c1O` [Amb8477462]: in the data set with AtT-20 pituitary cells, the “inhibition of ACTH at 25 μM, in words” value is “significant inhibition” and the activity at 25 µM is 31%. The IC50 in data set [1] was 8.98 µM. For the same molecule, the “AtT-20 cell viability (PrestoBlue assay) % of control (DMSO) at 25 μM Mean (SD)” value in the data set with AtT-20 cells was 67.96 (17.52) %.
`O=C(CSc1ccccc1F)Nc1cccc(OCc2ccccn2)c1` [Z393438700]: in the data set on AtT-20 pituitary cells, the “inhibition of ACTH at 25 μM, in words” value is “ineffective” and the activity at 25 µM came out at 92%. In addition, the concentration for half-maximal inhibition (IC50) in data set [1] is more than 40 µM. Moreover, in the data set with AtT-20 cells, the “AtT-20 cell viability (PrestoBlue assay) % of control (DMSO) at 25 μM Mean (SD)” value was 101.1 (16.04) %.
Turning to `O=C(Nc1ccc(O)cc1)c1cc(I)ccc1O` [Z69118571], in the data set on AtT-20 pituitary cells, the “inhibition of ACTH at 25 μM, in words” value is “ineffective” and the activity at 25 µM amounted to 101%. In addition, in data set [1], the IC50 was more than 100 µM. In the data set on AtT-20 cells, the “AtT-20 cell viability (PrestoBlue assay) % of control (DMSO) at 25 μM Mean (SD)” value is reported as 106.7 (20.87) %.
For `Cc1ccc(C(=O)c2cc(NC(=O)c3cc(I)cc(I)c3O)ccc2Cl)cc1` [Amb4103735], in the data set with AtT-20 pituitary cells, the “inhibition of ACTH at 25 μM, in words” value is “significant inhibition” and the activity at 25 µM is 58%. For the same molecule, in data set [1], the half-maximal inhibitory concentration (IC50) turned out to be 3.41 µM. For the same molecule, the “AtT-20 cell viability (PrestoBlue assay) % of control (DMSO) at 25 μM Mean (SD)” value in the data set with AtT-20 cells is reported as 109.4 (18.18) %.

For orientation: IC50 means the concentration needed to halve the response being measured.
